The text below walks through data of patent US20250059185A1 (Hoffmann-La Roche Inc., priority 2021, published 2025).

What is called IC50 is the concentration needed to halve the response being measured. The low end stands for higher potency, the high end for lower potency.

Sequence of MAGL (Q99685 whole entry, species assumed): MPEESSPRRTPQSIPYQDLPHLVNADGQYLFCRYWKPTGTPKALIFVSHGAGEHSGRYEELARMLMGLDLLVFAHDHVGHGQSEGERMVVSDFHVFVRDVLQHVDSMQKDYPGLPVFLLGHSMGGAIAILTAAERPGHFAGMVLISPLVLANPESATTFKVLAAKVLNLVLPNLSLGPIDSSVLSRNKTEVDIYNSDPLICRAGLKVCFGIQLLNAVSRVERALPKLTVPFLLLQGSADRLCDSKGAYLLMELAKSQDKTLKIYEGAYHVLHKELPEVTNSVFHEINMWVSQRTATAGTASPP

The experiment addresses MAGL (Homo sapiens (Human), UniProt Q99685). As to the kind of experiment: 2-AG assay (MAGL inhibitory activity, hydrolysis of 2-arachidonoylglycerol followed by mass spectrometry). It is filed as biochemical. The following applies: 50 pM MAGL protein, 15 min pre-incubation, 30 min incubation at RT. The text has this:
Compounds of formula (II) were profiled for MAGL inhibitory activity by determining the enzymatic activity by following the hydrolysis of the natural substrate 2-arachidonoylglycerol (2-AG) resulting in arachidonic acid, which can be followed by mass spectrometry. This assay is hereinafter abbreviated “2-AG assay”.
Compounds of formula (II) were profiled for MAGL inhibitory activity by determining the enzymatic activity by following the hydrolysis of the natural substrate 2-arachidonoylglycerol (2-AG) resulting in arachidonic acid, which can be followed by mass spectrometry. This assay is hereinafter abbreviated “2-AG assay”. The 2-AG assay was carried out in 384 well polypropylene assay plates. Compound dilutions were made in 100% DMSO in a polypropylene plate in 3-fold dilution steps to give a final concentration range in the assay from 12.5 μM to 0.8 pM. Compound dilutions were added to MAGL protein in assay buffer (50 mM TRIS, 1 mM EDTA, 0.01% (v/v) Tween-20, 2.5% (v/v) DMSO). After shaking, the plate was incubated for 15 min at RT. To start the reaction, 2-arachidonoylglycerol in assay buffer was added. The final concentrations in the assay was 50 pM for MAGL protein and […] 2-arachidonoylglyerol. After shaking and 30 min incubation at RT, the reaction was quenched by the addition of two assay volumes of acetonitrile containing 4 μM of d8-arachidonic acid. The amount of arachidonic acid formed was traced by an online SPE system (Agilent Rapidfire) coupled to a triple quadrupole mass spectrometer. A C18 SPE cartridge (Agilent G9205A) was used in an acetonitrile/water liquid setup. The mass spectrometer was operated in negative electrospray mode following the mass transitions 303.1→259.1 for arachidonic acid and 311.1→267.0 for d8-arachidonic acid. The activity of the compounds was calculated based on the ratio of intensities [arachidonic acid/d8-arachidonic acid].
For the compound `CC1c2nn(C)c(-c3cc(F)cc(F)c3)c2CCN1C(=O)c1cc(F)cc(OCC2(C(F)(F)F)CC2)c1Cl` (stereo not shown) [Example 27, [2-Chloro-5-fluoro-3-[[1-(trifluoromethyl)cyclopropyl]methoxy]phenyl]-[3-(3,5-difluorophenyl)-2,7-dimethyl-5,7-dihydro-4H-pyrazolo[3,4-c]pyridin-6-yl]methanone], the IC50 came to 88 nM. As to `COc1cccc(C(=O)N2CCc3c(nn(C)c3CNC3(C(F)(F)F)CC3)[C@@H]2C)c1Cl` [Example 11, (2-Chloro-3-methoxy-phenyl)-[(7S)-2,7-dimethyl-3-[[[1-(trifluoromethyl)cyclopropyl]amino]methyl]-5,7-dihydro-4H-pyrazolo[3,4-c]pyridin-6-yl]methanone], the IC50 amounted to 464 nM. As for `COc1cccc(C(=O)N2CCc3c(nn(C)c3-c3cc(F)cc(CC(N)=O)c3)[C@@H]2C)c1Cl` [Example 17, 2-[3-[(7S)-6-(2-Chloro-3-methoxy-benzoyl)-2,7-dimethyl-5,7-dihydro-4H-pyrazolo[3,4-c]pyridin-3-yl]-5-fluoro-phenyl]acetamide], 188 nM corresponded to half-maximal inhibition (IC50). `C[C@H]1c2nn(C)c(-c3cc(Cl)cc(C4(NS(C)(=O)=O)CC4)c3)c2CCN1C(=O)c1cc(F)cc(CCc2c[nH]nn2)c1Cl` [Example 88, N-[1-[3-chloro-5-[(7S)-6-[2-chloro-5-fluoro-3-[2-(1H-triazol-4-yl)ethyl]benzoyl]-2,7-dimethyl-5,7-dihydro-4H-pyrazolo[3,4-c]pyridin-3-yl]phenyl]cyclopropyl]methanesulfonamide] showed an IC50 of 1.77 nM. The figure for `C[C@@H]1c2nn(C)c(-c3cc(Cl)cc(C4(S(C)(=O)=O)CC4)c3)c2CCN1C(=O)c1cc(F)cc(-c2ccc(=O)[nH]c2)c1Cl` [Example 74, 5-[2-chloro-3-[(7R)-3-[3-chloro-5-(1-methylsulfonylcyclopropyl)phenyl]-2,7-dimethyl-5,7-dihydro-4H-pyrazolo[3,4-c]pyridine-6-carbonyl]-5-fluoro-phenyl]-1H-pyridin-2-one] is 293 nM; for `C[C@@H]1c2nn(C)c(-c3cc(F)cc(F)c3)c2CCN1C(=O)c1ccnc(OCC2CNC(=O)O2)c1Cl` (stereo partly drawn) [Example 43, 5-[[3-Chloro-4-[(7R)-3-(3,5-difluorophenyl)-2,7-dimethyl-5,7-dihydro-4H-pyrazolo[3,4-c]pyridine-6-carbonyl]-2-pyridyl]oxymethyl]oxazolidin-2-one] it is 1340 nM.

For the compound `COCCOc1cc(Cl)cc(-c2c3c(nn2C)[C@H](C)N(C(=O)c2cccc(OC)c2Cl)CC3)c1` [Example 69, [(7S)-3-[3-chloro-5-(2-methoxyethoxy)phenyl]-2,7-dimethyl-5,7-dihydro-4H-pyrazolo[3,4-c]pyridin-6-yl]-(2-chloro-3-methoxy-phenyl)methanone], the midpoint of inhibition, the IC50, lay at 3 nM. On to `Cc1c(C(=O)N2CCc3c(nn(C)c3-c3cc(F)cc(F)c3)C2C)cccc1N1CCNC1=O` (stereo not shown) [Example 25, 1-[3-[3-(3,5-Difluorophenyl)-2,7-dimethyl-5,7-dihydro-4H-pyrazolo[3,4-c]pyridine-6-carbonyl]-2-methyl-phenyl]imidazolidin-2-one], for which it took 892 nM to reach half-maximal inhibition (IC50).

In turn, `CC1c2nn(C)c(-c3cc(Cl)cc(C4(NS(C)(=O)=O)CC4)c3)c2CCN1C(=O)c1cc(F)cc(-c2ccc(=O)[nH]c2)c1Cl` (stereo not shown) [Example 55, N-[1-[3-Chloro-5-[6-[2-chloro-5-fluoro-3-(6-oxo-1H-pyridin-3-yl)benzoyl]-2,7-dimethyl-5,7-dihydro-4H-pyrazolo[3,4-c]pyridin-3-yl]phenyl]cyclopropyl]methanesulfonamide] yielded an IC50 of 7 nM.

On to `C[C@H]1c2nn(C)c(-c3cc(F)cc(F)c3)c2CCN1C(=O)c1cc(F)cc(CCc2c[nH]nn2)c1Cl` [Example 104, [2-chloro-5-fluoro-3-[2-(JH-triazol-4-yl)ethyl]phenyl]-[(7S)-3-(3,5-difluorophenyl)-2,7-dimethyl-5,7-dihydro-4H-pyrazolo[3,4-c]pyridin-6-yl]methanone], for which the IC50 amounted to 42.4 nM. The figure for `COc1cccc(C(=O)N2CCc3c(nn(C)c3-c3cc(Cl)cc(C4(NS(C)(=O)=O)CC4)c3)[C@@H]2C)c1Cl` [Example 7, N-[1-[3-Chloro-5-[(7S)-6-(2-chloro-3-methoxy-benzoyl)-2,7-dimethyl-5,7-dihydro-4H-pyrazolo[3,4-c]pyridin-3-yl]phenyl]cyclopropyl]methanesulfonamide] is 17 nM. The figure for `COCCOc1cc(Cl)cc(-c2c3c(nn2C)[C@@H](C)N(C(=O)c2cccc(OC)c2Cl)CC3)c1` [Example 79, [(7R)-3-[3-chloro-5-(2-methoxyethoxy)phenyl]-2,7-dimethyl-5,7-dihydro-4H-pyrazolo[3,4-c]pyridin-6-yl]-(2-chloro-3-methoxy-phenyl)methanone] is 1240 nM; for `C[C@H]1c2nn(C)c(-c3cc(F)cc(F)c3)c2CCN1C(=O)c1cc(F)cc(-c2c[nH]c(C#N)c2)c1Cl` [Example 36, 4-[2-Chloro-3-[(7S)-3-(3,5-difluorophenyl)-2,7-dimethyl-5,7-dihydro-4H-pyrazolo[3,4-c]pyridine-6-carbonyl]-5-fluoro-phenyl]-1H-pyrrole-2-carbonitrile] it is 17 nM; for `C[C@@H]1c2nn(C)c(-c3cc(Cl)cc(C4(NS(C)(=O)=O)CC4)c3)c2CCN1C(=O)c1cc(F)cc(-c2c[nH]c(C#N)c2)c1Cl` [Example 86, N-[1-[3-chloro-5-[(7R)-6-[2-chloro-3-(5-cyano-1H-pyrrol-3-yl)-5-fluoro-benzoyl]-2,7-dimethyl-5,7-dihydro-4H-pyrazolo[3,4-c]pyridin-3-yl]phenyl]cyclopropyl]methanesulfonamide] it is 1010 nM. The figure for `CC1c2nn(C)c(-c3cc(F)cc(F)c3)c2CCN1C(=O)c1cc(-c2cccc(C#N)c2)ccc1F` (stereo not shown) [Example 26, 3-[3-[3-(3,5-Difluorophenyl)-2,7-dimethyl-5,7-dihydro-4H-pyrazolo[3,4-c]pyridine-6-carbonyl]-4-fluoro-phenyl]benzonitrile] is 84 nM; for `C[C@H]1c2nn(C)c(-c3cc(F)cc(F)c3)c2CCN1C(=O)c1cc(F)cc(-c2cc[nH]c(=O)c2)c1Cl` [Example 31, 4-[2-Chloro-3-[(7S)-3-(3,5-difluorophenyl)-2,7-dimethyl-5,7-dihydro-4H-pyrazolo[3,4-c]pyridine-6-carbonyl]-5-fluoro-phenyl]-1H-pyridin-2-one] it is 3 nM; for `C[C@H]1c2nn(C)c(-c3cc(F)cc(F)c3)c2CCN1C(=O)c1ncn(-c2cc(F)cnc2O)n1` [Example 34, [(7S)-3-(3,5-Difluorophenyl)-2,7-dimethyl-5,7-dihydro-4H-pyrazolo[3,4-c]pyridin-6-yl]-[1-(5-fluoro-2-hydroxy-3-pyridyl)-1,2,4-triazol-3-yl]methanone] it is 149 nM. On to `COc1cccc(C(=O)N2CCc3c(nn(C)c3-c3cncc(S(C)(=O)=O)c3)[C@@H]2C)c1Cl` [Example 10, (2-Chloro-3-methoxy-phenyl)-[(7S)-2,7-dimethyl-3-(5-methylsulfonyl-3-pyridyl)-5,7-dihydro-4H-pyrazolo[3,4-c]pyridin-6-yl]methanone], for which it took 4870 nM to reach half-maximal inhibition (IC50). The figure for `CC1c2nn(C)c(-c3cc(F)cc(F)c3)c2CCN1C(=O)c1ccnc(OCC2CNC(=O)O2)c1Cl` (stereo not shown) [Example 41, 5-[[3-Chloro-4-[3-(3,5-difluorophenyl)-2,7-dimethyl-5,7-dihydro-4H-pyrazolo[3,4-c]pyridine-6-carbonyl]-2-pyridyl]oxymethyl]oxazolidin-2-one] is 53 nM. The figure for `C[C@@H]1c2nn(C)c(-c3cc(Cl)cc(C4(C(N)=O)CC4)c3)c2CCN1C(=O)c1cc(F)cc(N2CC3(C2)CS(=O)(=O)C3)c1Cl` [Example 76, 1-[3-chloro-5-[(7R)-6-[2-chloro-3-(2,2-dioxo-2λ^6-thia-6-azaspiro[3.3]heptan-6-yl)-5-fluoro-benzoyl]-2,7-dimethyl-5,7-dihydro-4H-pyrazolo[3,4-c]pyridin-3-yl]phenyl]cyclopropanecarboxamide] is 1420 nM; for `C[C@H]1c2nn(C)c(-c3cc(F)cc(F)c3)c2CCN1C(=O)c1cc(F)cc(OC[C@H]2CNC(=O)N2)c1Cl` [Example 115, (4R)-4-[[2-chloro-3-[(7S)-3-(3,5-difluorophenyl)-2,7-dimethyl-5,7-dihydro-4H-pyrazolo[3,4-c]pyridine-6-carbonyl]-5-fluoro-phenoxy]methyl]imidazolidin-2-one] it is 4.88 nM. The figure for `CC1c2nn(C)c(-c3cncc(C(F)(F)F)n3)c2CCN1C(=O)c1cc(F)cc(N2CC(S(N)(=O)=O)C2)c1Cl` (stereo not shown) [Example 58, 1-[2-Chloro-3-[2,7-dimethyl-3-[6-(trifluoromethyl)pyrazin-2-yl]-5,7-dihydro-4H-pyrazolo[3,4-c]pyridine-6-carbonyl]-5-fluoro-phenyl]azetidine-3-sulfonamide] is 304 nM.
